Source: patent US11491148B2, “Amide derivatives useful in the treatment of HBV infection or HBV-induced diseases” (Janssen Sciences Ireland Unlimited Company, priority 2019, dated 2022)
Where two headings read alike, the source gives them in different places.

Assays:
[1] = tested on: HepG2.117 cells; experiment: Cytotoxicity, ATPlite cell viability (TOX-HepG2.117); format: cell-based, human
Procedure: (§1) Cytotoxicity of the compounds was tested using HepG2 or HepG2.117 cells, incubated for 3 days in the presence of compounds. The viability of the cells was assessed using the Perkin Elmer ATPlite Luminescence Assay System.”

[2] = tested on: HBV; experiment: Anti-HBV activity, intracellular HBV DNA by real-time PCR (HBV-AVE-HepG2.117); format: cell-based, Hepatitis B virus; conditions: read-out: HBV-AVE-HepG2.117 EC50 (μM; mean value)
Procedure: The anti HBV activity was measured using the HepG2.117 cell line, a stable, inducible HBV producing cell line, which replicates HBV in the absence of doxicycline (Tet-off system). The HepG2 cell line is available from ATCC®) under number HB-8065. Transfection of the HepG2 cell line can be as described in Sun and Nassal 2006 Journal of Hepatology 45 (2006) 636-645 “Stable HepG2- and Huh7-based human hepatoma cell lines for efficient regulated expression of infectious hepatitis B virus”.
For the antiviral assay, HBV replication was induced, followed by a treatment with serially diluted compound in 96-well plates. After 3 days of treatment, the antiviral activity was determined by quantification of intracellular HBV DNA using real-time PCR and an HBV specific primer set and probe.

[3] = Cytotoxicity, ATPlite cell viability (TOX-HepG2.117); format: cell-based, human; conditions: human; HepG2.117 cells, incubated for 3 days, ATPlite, mean value
Procedure: as §1

[4] = HepG2.117 cell line, 3 days of treatment, intracellular HBV DNA, mean value
[5] = Hepatitis B virus, HepG2.117, 72 h, HepG2.117 cell line, 3 days of treatment, intracellular HBV DNA, mean value

Compound | CC50 [1] | EC50 [2, 4] | CC50 at 3 days [3] | EC50 [2, 5] | EC50 ([2]; Hepatitis B virus, HepG2.117, 72 h)
C[C@H]1[C@H](C(=O)Nc2cc(F)c(F)c(F)c2)CCN1C(=O)C(=O)NC1(c2c[nH]nn2)CC(F)(F)C1 [C3′] | > 50 µM | > 2.5 µM | – | – | –
C[C@H]1[C@H](C(=O)Nc2ccc(F)c(C#N)c2)CCN1C(=O)C(=O)NC1(c2c[nH]nn2)CC(F)(F)C1 [C6′] | > 50 µM | 2.91 µM | – | – | –
O=C(NC1(c2c[nH]nn2)CC(F)(F)C1)C(=O)N1CC[C@H](C(=O)Nc2ccnc(Cl)c2)C1 [C11] | – | – | > 50 µM | 1.5 µM | –
O=C(NC1(c2c[nH]nn2)CC(F)(F)C1)C(=O)N1CC[C@H](C(=O)Nc2ccnc(C(F)F)c2)C1 [C12] | – | – | > 50 µM | 1.29 µM | –
C[C@H]1C[C@H](C(=O)Nc2ccc(F)c(C#N)c2)CN1C(=O)C(=O)NC1(c2c[nH]nn2)CC(F)(F)C1 [C13] | – | – | > 50 µM | 0.061 µM | –
C[C@H]1[C@@H](C(=O)Nc2ccc(F)c(C(F)F)c2F)CCN1C(=O)C(=O)NC1(c2c[nH]nn2)CC(F)(F)C1 [C14] | – | – | > 50 µM | 0.019 µM | –
C[C@H]1[C@@H](C(=O)Nc2ccc(Cl)c(Cl)c2)CCN1C(=O)C(=O)NC1(c2c[nH]nn2)CC(F)(F)C1 [C15] | – | – | 35.2 µM | 0.014 µM | –
C[C@H]1[C@@H](C(=O)Nc2cc(F)c(F)c(Cl)c2)CCN1C(=O)C(=O)NC1(c2c[nH]nn2)CC(F)(F)C1 [C16] | – | – | > 50 µM | 0.006 µM | –
C[C@H]1[C@@H](C(=O)Nc2ccc(F)c(Cl)c2F)CCN1C(=O)C(=O)NC1(c2c[nH]nn2)CC(F)(F)C1 [C17] | – | – | > 50 µM | 0.01 µM | –
C[C@H]1[C@@H](C(=O)Nc2ccc(F)c(C(F)(F)F)c2)CCN1C(=O)C(=O)NC1(c2c[nH]nn2)CC(F)(F)C1 [C18] | – | – | > 50 µM | 0.012 µM | –
C[C@H]1C[C@H](C(=O)Nc2cc(F)c(F)c(F)c2)CN1C(=O)C(=O)NC1(c2c[nH]nn2)CC(F)(F)C1 [C19] | – | – | > 50 µM | 0.019 µM | –
C[C@H]1[C@@H](C(=O)Nc2ccc(F)c(Cl)c2)CCN1C(=O)C(=O)NC1(c2c[nH]nn2)CC(F)(F)C1 [C20] | – | – | > 50 µM | 0.012 µM | –
C[C@H]1[C@@H](C(=O)Nc2cc(F)c(F)c(Br)c2)CCN1C(=O)C(=O)NC1(c2c[nH]nn2)CC(F)(F)C1 [C21, (2S,3S)—N-(3-bromo-4,5-difluorophenyl)-1-(2-((3,3-difluoro-1-(1H-1,2,3-triazol-4-yl)cyclobutyl)amino)-2-oxoacetyl)-2-methylpyrrolidine-3-carboxamide] | – | – | > 50 µM | – | 0.012 µM
C[C@H]1[C@@H](C(=O)Nc2ccc(F)c(F)c2F)CCN1C(=O)C(=O)NC1(c2c[nH]nn2)CC(F)(F)C1 [C22] | – | – | > 50 µM | 0.026 µM | –
Cc1c(F)ccc(NC(=O)[C@H]2CCN(C(=O)C(=O)NC3(c4c[nH]nn4)CC(F)(F)C3)[C@H]2C)c1F [C23] | – | – | > 50 µM | 0.016 µM | –
Cc1cc(NC(=O)[C@H]2CCN(C(=O)C(=O)NC3(c4c[nH]nn4)CC(F)(F)C3)[C@H]2C)cc(Cl)c1F [C24] | – | – | > 50 µM | 0.012 µM | –
C[C@H]1[C@@H](C(=O)Nc2cc(F)c(F)c(F)c2)CCN1C(=O)C(=O)NC1(c2nn[nH]c2Cl)CC(F)(F)C1 [C26] | – | – | > 50 µM | 0.176 µM | –
Cc1cc(NC(=O)[C@H]2CCN(C(=O)C(=O)NC3(c4c[nH]nn4)CC(F)(F)C3)[C@H]2C)cc(F)c1F [C27] | – | – | > 50 µM | 0.012 µM | –
C[C@H]1C[C@H](C(=O)Nc2cc(F)c(F)c(F)c2)[C@H](C)N1C(=O)C(=O)NC1(c2c[nH]nn2)CC(F)(F)C1 [C35] | – | – | > 50 µM | 0.011 µM | –
C[C@H]1C[C@H](C(=O)Nc2cc(F)c(F)c(F)c2)[C@H](C)N1C(=O)C(=O)NC(CC(F)(F)F)c1c[nH]nn1 (stereo partly shown) [C36] | – | – | > 50 µM | < 0.01 µM | –
Cc1[nH]nnc1C1(NC(=O)C(=O)N2CC[C@H](C(=O)Nc3cc(F)c(F)c(F)c3)[C@@H]2C)CC(F)(F)C1 [C38] | – | – | > 50 µM | 0.012 µM | –
C[C@H]1[C@@H](C(=O)Nc2cc(F)c(F)c(F)c2)CCN1C(=O)C(=O)N[C@]1(c2c[nH]nn2)C[C@H](C(F)F)C1 [C39c] | – | – | > 50 µM | 0.062 µM | –
C[C@H]1[C@@H](C(=O)Nc2cc(F)c(F)c(F)c2)CCN1C(=O)C(=O)N[C@]1(c2c[nH]nn2)C[C@@H](C(F)F)C1 [C39t] | – | – | > 50 µM | 0.033 µM | –
